Patent publication US20250353891A1 (MEDIMMUNE LIMITED, priority 2022, published 2025)
Like-named read-outs stand apart in the source and are kept apart here. Starred links: 1 amine or outer side, 2 acyl side, 3 side chain; linkers in the order of their positions; H or OH if unused. Non-standard residues stand in square brackets, D forms with d. Residues, ends and D or L forms follow the SMILES beside them. Groups on a side chain read outwards from the residue. *: point of attachment. C20 diacid = O=C(O)CCCCCCCCCCCCCCCCCCC(=O)*; Dip = N[C@H](C(=O)O)C(c1ccccc1)c1ccccc1; γGlu = O=C(O)[C@H](CCC(=O)[*:2])N[*:1]; Stearoyl = CCCCCCCCCCCCCCCCCC(=O)*; Palmitoyl = CCCCCCCCCCCCCCCC(=O)*; αMeF = C[C@](N)(Cc1ccccc1)C(=O)O; PEG4 = NCCOCCOCCOCCOCCC(=O)O; PEG2 = NCCOCCOCCC(=O)O; AEEA = NCCOCCOCC(=O)O; Aib = CC(C)(N)C(=O)O

Key:
[1] = Proteolytic resistance to FasSSIF/Pancreatin; format: in vitro ADME; details: simulated intestinal fluid
Protocol: A fresh suspension of FasSSIF/P (Fasted-State Simulated Intestinal Fluid+USP Pancreatin®) was prepared according to that described by Galia, Nicolaides, Hörter, Löbenberg, Reppas and Dressman: Pharm. Res. 15 (1998) 698-705, and USP XL requirements. The resulting preparation was used immediately without storage.
Peptide for evaluation (1.0 mg) was dissolved in pre-warmed FasSSIF without Pancreatin® (200 μL). To this fresh FasSSIF/Pancreatin® (100 μL) was added to initiate potential proteolysis. Following momentary vortexing of the reaction tube the mixture was incubated at 37° C. in a thermostatic water bath for the duration of the experiment. 25 μL aliquot of the co-incubated peptide-enzyme mixture was periodically withdrawn (t=0, 5, 10 15 and 30 min) and quenched immediately by addition to a solution of 10% TFA in 1:1 water/acetonitrile (75 μL) to arrest proteolytic activity. Quenched samples were centrifuged (7800 RPM, 3 mins) to pellet solids and 10 μL aliquots of the supernatant solution were analyzed using analytical RP-HPLC as follows: Analytical RP-HPLC method: Agilent Polaris C8-A column (4.6×100 mm, 3 micron) eluted with a linear binary gradient of 10-90% MeCN (0.1% TFA v/v) in water (0.1% TFA v/v) over either 10 or 15 mins at 1.5 mL min^−1 at 40° C. with detection by UV absorption at 210 nm. Manual integration (AUC) allowed estimation of remaining intact peptide over the time course of the experiment.

[2] = molecular target: human glucagon receptor (hGCGR) (Homo sapiens, UniProt P47871); assay: cAMP production (HTRF) in CHO cells expressing hGCGR; format: cell-based; design: expressed in transfected cells; details: geometric mean, read-out: hGluc-R EC50
Summary of the method: (§1)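 Read-out: HTRF cAMP (anti-cAMP cryptate donor, cAMP-d2 acceptor in conjugate/lysis buffer), converted to % Delta F and fitted by 4-parameter logistic for EC50. Cell densities were 1×10^5 cells/mL (hGLP-1R) or 2×10^5 cells/mL (hGCGR). Stimulation lasted 30 min at room temperature.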

[3] = test system: GLP-1R knockout (KO) mice; assay: Glucose change in GLP-1R knockout mice; format: in vivo, mouse; details: GLP-1R KO mice, s.c., 120 min vs 0 min
Summary of the method: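 GLP-1R knockout mice (n=4-8/group, sorted by body weight) were fasted 2 h, and in some studies pretreated with octreotide 10 mg/kg 30 min before peptide injection. Mice were reused up to 3 times with at least 1-week wash-out.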

[4] = Mouse acute food intake study; format: in vivo; details: male C57Bl/6 mice, s.c., dose 10 nmol/kg, cumulative food intake at 24 hr vs vehicle
Summary of the method: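 Single-housed male C57Bl/6 mice (8-9 weeks on arrival), chow-fed, acclimated and sham-dosed ≥2 times, were fasted 6-8 h, then given vehicle or peptide subcutaneously at 5 mL/kg 1-2 h before lights out. Food intake was recorded automatically over 48 h and analysed as cumulative intake.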

[5] = molecular target: human GLP-1 receptor (hGLP-1R) (Homo sapiens, UniProt P43220); assay: cAMP production (HTRF) in CHO cells expressing hGLP-1R; format: cell-based; design: expressed in transfected cells; details: for EC50: geometric mean, read-out: hGLP-1R EC50; for % Relative Potency Ratio: % GLP-1R activity relative to GLP-1 / % GlucR activity relative to glucagon
Summary of the method: as §1

wildtype (WT) mice = assay: Glucose change in wildtype mice; format: in vivo, mouse; details: s.c., 120 min vs 0 min
Summary of the method: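 Wildtype mice aged 8-14 weeks, fasted 2 h, sometimes pre-treated with octreotide 10 mg/kg 30 min before peptide injection. Blood glucose by glucometer at -30, 0, 30, 60, 120, 180, 240 and 360 min; n=4-8/group, mice reused up to 3 times with ≥1 week wash-out.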

[6] = Proteolytic resistance to FasSSGF containing porcine pancreatic pepsin; format: in vitro ADME; details: pig, simulated gastric fluid
Protocol: Stimulated Gastric Fluid (FasSSGF) Containing Porcine Pancreatic Pepsin Lyophilized porcine pancreatic pepsin (Sigma: P7012) was reconstituted to 0.5 mg/mL (˜2500 units/mL) in freshly prepared FasSSGF (Biorelevant media) to give the enzyme stock solution. Peptide stock solution was prepared to a concentration of 250 μM (˜1.0 mg/mL) in FasSSGF. 200 μL ([…], ˜250 units) of pepsin stock solution was added to 200 μL of peptide solution (1.0 mg/mL, ˜100 μg of peptide, ˜25 nmoles) and the mixture was co-incubated in a temperature-regulated incubator at 37° C. for the duration of the experiment. 30 μL aliquot of the peptide-enzyme mixture was periodically withdrawn (t=0, 5, 10, 15, and 30 min) and quenched immediately by addition of 80 μL of 0.1M ammonium bicarbonate solution in water/acetonitrile (4:1, pH 8) to arrest proteolytic activity. 30 μL aliquot was analyzed by analytical RP-HPLC. Analytical RP-HPLC method: Agilent Polaris C8-A column (4.6×100 mm, 3 micron) eluted with a linear binary gradient of 10-90% MeCN (0.1% TFA v/v) in water (0.1% TFA v/v) over either 10 or 15 mins at 1.5 mL min-1 at 40° C. with detection by UV absorption at 210 nm. Manual integration (AUC) allowed estimation of remaining intact peptide over the time course of the experiment.

[7] = Table 6, peptides modified at position 17, cAMP in CHO hGCGR cells
[8] = 3 nmol/kg, no somatostatin pretreatment
[9] = Table 6, peptides modified at position 17, cAMP in CHO hGLP-1R cells
[10] = 10 nmol/kg, somatostatin pretreatment (octreotide) 30 min prior to cpd
[11] = 30 nmol/kg, somatostatin pretreatment (octreotide) 30 min prior to cpd

Chain of human GLP-1 receptor (hGLP-1R) (P43220 24-463): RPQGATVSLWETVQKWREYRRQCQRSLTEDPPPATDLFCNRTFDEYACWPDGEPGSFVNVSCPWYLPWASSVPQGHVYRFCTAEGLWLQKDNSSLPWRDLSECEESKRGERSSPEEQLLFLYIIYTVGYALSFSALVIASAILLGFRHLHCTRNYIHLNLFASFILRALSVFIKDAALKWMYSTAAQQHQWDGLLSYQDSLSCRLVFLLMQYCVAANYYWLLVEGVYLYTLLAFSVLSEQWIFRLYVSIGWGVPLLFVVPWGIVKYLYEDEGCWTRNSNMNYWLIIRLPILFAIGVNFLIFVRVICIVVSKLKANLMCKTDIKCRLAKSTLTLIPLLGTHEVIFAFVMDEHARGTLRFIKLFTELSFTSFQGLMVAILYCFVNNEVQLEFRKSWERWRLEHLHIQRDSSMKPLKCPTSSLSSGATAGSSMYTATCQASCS
Chain of human glucagon receptor (hGCGR) (P47871 26-477): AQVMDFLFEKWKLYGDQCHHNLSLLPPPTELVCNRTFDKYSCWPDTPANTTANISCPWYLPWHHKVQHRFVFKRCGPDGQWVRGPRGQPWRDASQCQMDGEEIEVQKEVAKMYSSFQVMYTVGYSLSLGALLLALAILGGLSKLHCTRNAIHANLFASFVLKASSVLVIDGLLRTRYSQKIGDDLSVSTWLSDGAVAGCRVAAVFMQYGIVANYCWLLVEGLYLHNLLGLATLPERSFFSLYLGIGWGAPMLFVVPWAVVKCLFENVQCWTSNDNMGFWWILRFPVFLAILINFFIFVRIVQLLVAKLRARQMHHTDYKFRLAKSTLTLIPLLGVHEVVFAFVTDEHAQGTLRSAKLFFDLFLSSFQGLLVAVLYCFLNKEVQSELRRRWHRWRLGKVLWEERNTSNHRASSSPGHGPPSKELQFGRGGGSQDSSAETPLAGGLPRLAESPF

| Compound | remaining at 5 min, 3.3 mg/mL [1] | remaining at 10 min, 3.3 mg/mL [1] | remaining at 0.25 h, 3.3 mg/mL [1] | remaining at 0.5 h, 3.3 mg/mL [1] | EC50 [2, 7] | GLP-1R KO % glucose change 120 min [3, 8] | 24 hr % Vehicle Food Intake [4] | EC50 [5, 9] | % Relative Potency Ratio ([5]; Table 6) | WT % glucose change 120 min (wildtype (WT) mice; [8]) | GLP-1R KO % glucose change 120 min [3, 10] | GLP-1R KO % glucose change 120 min [3, 11] | WT % glucose change 120 min (wildtype (WT) mice; [10]) | WT % glucose change 120 min (wildtype (WT) mice; [11]) | EC50 ([2]; cAMP, CHO cells, 0.1% BSA) | remaining at 0.25 h, 125 µM [6] | remaining at 0.5 h, 125 µM [6] | % Relative Potency Ratio [5] | EC50 ([5]; cAMP, CHO cells, 0.1% BSA) |
| --- | --- | --- | --- | --- | --- | --- | --- | --- | --- | --- | --- | --- | --- | --- | --- | --- | --- | --- | --- |
| CCCCCCCCCCCCCCCC(=O)N[C@@H](CCC(=O)N[C@@H](CCC(=O)NCCOCCOCCOCCOCCC(=O)NCCCC[C@H](NC(=O)[C@H](CO)NC(=O)[C@H](CC(=O)O)NC(=O)[C@H](CC(C)C)NC(=O)[C@@H](NC(=O)[C@H](CCCCN)NC(=O)[C@H](CO)NC(=O)[C@@H](NC(=O)[C@H](CC(=O)O)NC(=O)[C@H](CO)NC(=O)[C@@H](NC(=O)[C@](C)(Cc1ccccc1)NC(=O)[C@H](CO)NC(=O)CNC(=O)[C@H](CCC(N)=O)NC(=O)C(C)(C)NC(=O)[C@@H](N)Cc1c[nH]cn1)[C@@H](C)O)C(C)C)C(c1ccccc1)c1ccccc1)C(=O)N[C@@H](CCCNC(=N)N)C(=O)N[C@@H](C)C(=O)N[C@@H](CCC(N)=O)C(=O)N[C@@H](CC(=O)O)C(=O)N[C@@](C)(Cc1ccccc1)C(=O)N[C@H](C(=O)N[C@@H](CCC(=O)O)C(=O)NC(C)(C)C(=O)N[C@@H](CC(C)C)C(=O)N[C@@H](CCC(=O)O)C(=O)N[C@@H](C)C(=O)NCC(=O)NCC(N)=O)C(C)C)C(=O)O)C(=O)O [Peptide 43] (H-H[Aib]QGS[αMeF]TSDVSK[Dip]LDSK([PEG4-γGlu-γGlu-Palmitoyl])RAQD[αMeF]VE[Aib]LEAGG-NH2; N-terminus assumed) | 83% | 33% | 29% | 19% | 5.52 pM | 63.9% | 53.2% | 1.89 pM | 5.8 | −56.0% | – | – | – | – | – | – | – | – | – |
| CCCCCCCCCCCCCCCCCC(=O)N[C@@H](CCC(=O)N[C@@H](CCC(=O)NCCOCCOCCC(=O)NCCOCCOCCC(=O)NCCCC[C@H](NC(=O)[C@H](CO)NC(=O)[C@H](CC(=O)O)NC(=O)[C@H](CC(C)C)NC(=O)[C@@H](NC(=O)[C@H](CCCCN)NC(=O)[C@H](CO)NC(=O)[C@@H](NC(=O)[C@H](CC(=O)O)NC(=O)[C@H](CO)NC(=O)[C@@H](NC(=O)[C@](C)(Cc1ccccc1)NC(=O)[C@H](CO)NC(=O)CNC(=O)[C@H](CCC(N)=O)NC(=O)[C@H](CO)NC(=O)[C@@H](N)Cc1c[nH]cn1)[C@@H](C)O)C(C)C)C(c1ccccc1)c1ccccc1)C(=O)N[C@@H](C)C(=O)N[C@@H](C)C(=O)N[C@@H](CCC(N)=O)C(=O)N[C@@H](CC(=O)O)C(=O)N[C@@](C)(Cc1ccccc1)C(=O)N[C@H](C(=O)N[C@@H](CCC(=O)O)C(=O)NC(C)(C)C(=O)N[C@H](C(=O)N[C@@H](C)C(=O)N[C@@H](CC(N)=O)C(=O)N[C@H](C(N)=O)[C@@H](C)O)[C@@H](C)CC)C(C)C)C(=O)O)C(=O)O [Peptide 49] (H-HSQGS[αMeF]TSDVSK[Dip]LDSK([PEG2-PEG2-γGlu-γGlu-Stearoyl])AAQD[αMeF]VE[Aib]IANT-NH2; N-terminus assumed) | 97% | 96% | 95% | 90% | 1.73 pM | – | 69.2% | 1.74 pM | 2.0 | – | 193.3% | 154.3% | −1.2% | 16.8% | – | – | – | – | – |
| CC[C@H](C)[C@H](NC(=O)[C@H](Cc1c[nH]c2ccccc12)NC(=O)[C@H](CCCCNC(=O)COCCOCCNC(=O)COCCOCCNC(=O)CC[C@H](NC(=O)CCCCCCCCCCCCCCCCCCC(=O)O)C(=O)O)NC(=O)[C@@H](NC(=O)[C@H](Cc1ccccc1)NC(=O)[C@H](CC(=O)O)NC(=O)[C@H](CCC(N)=O)NC(=O)[C@H](C)NC(=O)[C@H](C)NC(=O)[C@H](CCCNC(=N)N)NC(=O)[C@H](CO)NC(=O)[C@H](CC(=O)O)NC(=O)[C@H](CC(C)C)NC(=O)[C@](C)(Cc1ccccc1)NC(=O)[C@H](CCCCN)NC(=O)[C@H](CO)NC(=O)[C@@H](NC(=O)[C@H](CC(=O)O)NC(=O)[C@H](CO)NC(=O)[C@@H](NC(=O)[C@](C)(Cc1ccccc1)NC(=O)[C@H](CO)NC(=O)CNC(=O)[C@H](Cc1c[nH]cn1)NC(=O)C(C)(C)NC(=O)[C@@H](N)Cc1c[nH]cn1)[C@@H](C)O)C(C)C)C(C)C)C(=O)N[C@@H](C)C(=O)N[C@@H](CC(N)=O)C(=O)N[C@H](C(N)=O)[C@@H](C)O [Peptide 367] (H-H[Aib]HGS[αMeF]TSDVSK[αMeF]LDSRAAQDFVK([AEEA-AEEA-γGlu-C20 diacid])WIANT-NH2; N-terminus assumed) | – | – | – | – | – | – | – | – | – | – | – | – | – | – | 72.4 pM | 0% | 0% | 1.0 | 139 pM |
